# Active and inactive are the calls of the source. No cut-off for these calls is given here.
# What was measured:
# [1] = system: NCI-H1299; assay: Cell cycle arrest in human NCI-H1299 cells assessed as induction of polyploidy after 48 hrs by Hoechst staining-based fluorescence microscopic analysis; assay type: functional; conditions: NCI-H1299, 48 h
# [2] = target: T1, Vascular endothelial growth factor receptor 2 (Homo sapiens, UniProt P35968); assay: Inhibition of KDR by HTRF analysis in presence of 1 mM ATP
# T1 sequence (P35968 whole entry): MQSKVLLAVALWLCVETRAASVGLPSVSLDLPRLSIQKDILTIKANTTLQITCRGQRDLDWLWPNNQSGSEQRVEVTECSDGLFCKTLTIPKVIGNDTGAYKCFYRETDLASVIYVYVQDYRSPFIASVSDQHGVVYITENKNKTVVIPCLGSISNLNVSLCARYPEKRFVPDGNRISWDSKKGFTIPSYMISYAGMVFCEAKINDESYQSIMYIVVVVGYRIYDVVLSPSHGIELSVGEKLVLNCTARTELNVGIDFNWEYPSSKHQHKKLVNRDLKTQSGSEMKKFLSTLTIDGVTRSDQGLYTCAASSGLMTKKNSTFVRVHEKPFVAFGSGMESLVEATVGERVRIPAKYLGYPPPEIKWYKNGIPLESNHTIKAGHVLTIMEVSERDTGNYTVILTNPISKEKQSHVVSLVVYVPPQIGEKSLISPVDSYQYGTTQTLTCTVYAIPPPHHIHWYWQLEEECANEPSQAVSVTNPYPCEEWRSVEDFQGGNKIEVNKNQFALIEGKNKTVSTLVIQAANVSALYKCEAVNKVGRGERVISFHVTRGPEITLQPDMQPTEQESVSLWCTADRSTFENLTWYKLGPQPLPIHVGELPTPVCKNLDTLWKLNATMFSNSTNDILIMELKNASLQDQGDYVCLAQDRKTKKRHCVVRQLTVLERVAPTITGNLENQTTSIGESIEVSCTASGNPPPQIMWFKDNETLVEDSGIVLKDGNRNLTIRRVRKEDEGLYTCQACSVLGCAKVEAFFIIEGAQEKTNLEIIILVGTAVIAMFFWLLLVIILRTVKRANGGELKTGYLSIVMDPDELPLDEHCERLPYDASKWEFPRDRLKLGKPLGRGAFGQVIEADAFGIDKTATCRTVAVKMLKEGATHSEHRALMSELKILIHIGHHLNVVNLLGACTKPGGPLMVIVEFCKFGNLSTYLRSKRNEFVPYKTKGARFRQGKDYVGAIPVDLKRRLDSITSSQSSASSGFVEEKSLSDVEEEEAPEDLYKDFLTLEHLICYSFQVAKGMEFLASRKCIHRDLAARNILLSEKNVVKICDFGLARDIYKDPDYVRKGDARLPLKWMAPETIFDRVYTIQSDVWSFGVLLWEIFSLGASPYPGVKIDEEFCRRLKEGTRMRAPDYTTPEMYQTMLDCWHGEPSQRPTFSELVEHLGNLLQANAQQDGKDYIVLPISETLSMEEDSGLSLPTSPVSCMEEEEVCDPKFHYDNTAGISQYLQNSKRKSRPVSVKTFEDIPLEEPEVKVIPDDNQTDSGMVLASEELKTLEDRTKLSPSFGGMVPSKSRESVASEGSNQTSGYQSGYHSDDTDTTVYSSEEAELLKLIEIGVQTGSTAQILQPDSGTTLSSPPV
# [3] = Metabolic stability of the compound in mouse liver microsomes assessed as compound remaining after 30 mins; assay type: ADME, Microsome; conditions: read-out: Stability
# [4] = target: T1, Vascular endothelial growth factor receptor 2; assay: Inhibition of human KDR autophosphorylation expressed in mouse NIH/3T3 cells; assay type: cell-based, NIH3T3
# [5] = AUC in CD1(ICR) mouse at 10 mg/kg, ip; assay type: ADME, organism-based; design: dose 10 mg/kg, route intraperitoneal; conditions: plasma
# [6] = target: Aurora kinase B (Homo sapiens, UniProt Q96GD4); assay: Inhibition of Aurora B kinase by HTRF analysis in presence of 1 mM ATP
# Sequence of Aurora kinase B (Q96GD4 whole entry): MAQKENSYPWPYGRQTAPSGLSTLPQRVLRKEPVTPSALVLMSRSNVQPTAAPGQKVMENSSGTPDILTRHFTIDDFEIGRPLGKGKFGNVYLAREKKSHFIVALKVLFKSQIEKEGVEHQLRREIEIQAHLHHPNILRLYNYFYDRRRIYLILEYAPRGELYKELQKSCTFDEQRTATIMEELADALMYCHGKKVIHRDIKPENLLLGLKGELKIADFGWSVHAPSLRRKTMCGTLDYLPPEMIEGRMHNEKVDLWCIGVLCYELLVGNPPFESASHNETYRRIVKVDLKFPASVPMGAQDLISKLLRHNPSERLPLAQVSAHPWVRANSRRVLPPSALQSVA
# [7] = Aqueous solubility of the compound at pH 7.4 after 24 hrs by chemiluminescent nitrogen detection; assay type: physicochemical
# [8] = system: DOHH-2; conditions: Homo sapiens
# Description: Antitumor activity against human DOHH2 cells xenografted in mouse tumor model assessed as tumor growth inhibition at 10 mg/kg, ip administered Q7d for 3 weeks
# [9] = system: Mus musculus; assay: Toxicity in mouse xenografted with human DOHH2 cells assessed as weight loss at 10 mg/kg, ip administered Q7d for 3 weeks; conditions: in vivo, 504 h
# [10] = system: Mus musculus; assay: Toxicity in mouse xenografted with human DOHH2 cells assessed as mortality at 10 mg/kg, ip administered Q7d for 3 weeks; conditions: in vivo, 504 h
IC50 [2] [nM],remaining at 0.5 h [3] [%],IC50 [4] [nM],AUC [5] [µM·h],IC50 [6] [nM],solubility at 24 h [7] [µM],SMILES,EC15 [1] [nM],TGI [8],Activity [9],Activity [10]
,,,,,,Nc1ncc(-c2cnn(CCO)c2)c2scc(-c3ccc(NC(=O)Nc4cccc(F)c4)cc3)c12 [ILORASERTIB],12,,,
15,48,49,12.7,15,86,NC(=O)[C@@H]1[C@H](Nc2nc(Nc3cnn(C[C@H]4CCCN4)c3)ncc2Cl)[C@H]2C=C[C@@H]1C2,11,,,
3,13,8,2.54,8,70,CCn1cc(Nc2ncc(Cl)c(N[C@H]3[C@@H](C(N)=O)[C@@H]4C=C[C@H]3C4)n2)cn1,< 1,,,
,,,,54,,Cc1cc(Nc2ncc(F)c(N[C@H]3[C@@H](C(N)=O)[C@@H]4C=C[C@H]3C4)n2)ccc1N1CCN(C)CC1,1,,,
153,,,,44,,Cn1cc(Nc2ncc(Cl)c(N[C@@H]3CC[C@@H]3C(N)=O)n2)cn1,93,,,
19,,> 316,,31,,Cn1cc(Nc2ncc(Cl)c(N[C@H]3[C@H]4CC[C@H](C4)[C@H]3C(N)=O)n2)cn1,15,,,
431,,,,16,,Cn1cc(Nc2ncc(C(F)(F)F)c(Nc3ccccc3C(N)=O)n2)cn1,11,,,
19,,84,,8,,Cn1cc(Nc2ncc(Cl)c(N[C@@H]3[C@H]4CC[C@H](C4)[C@@H]3C(N)=O)n2)cn1,1,,,
9,4,78,,27,85,NC(=O)[C@@H]1[C@H](Nc2nc(Nc3cnn(CCN4CCOCC4)c3)ncc2Cl)[C@H]2C=C[C@@H]1C2,< 3,,,
1540,,,,197,,Cn1cc(Nc2ncc(C(N)=O)c(N[C@H]3[C@@H](C(N)=O)[C@@H]4C=C[C@H]3C4)n2)cn1,,,,
266,,,,99,,Cn1cc(Nc2ncc(C(F)(F)F)c(N[C@H]3[C@@H](C(=O)NCCO)[C@@H]4C=C[C@H]3C4)n2)cn1,< 1,,,
12,,35,,28,,Cn1cc(Nc2ncc(C(F)(F)F)c(N[C@H]3[C@@H](C(N)=O)[C@@H]4C=C[C@H]3C4)n2)cn1,3,,,
6,88,89,6.68,26,72,CNC(=O)Cn1cc(Nc2ncc(Cl)c(N[C@H]3[C@@H](C(N)=O)[C@@H]4C=C[C@H]3C4)n2)cn1,11,,,
2,48,44,15.7,12,70,NC(=O)[C@@H]1[C@H](Nc2nc(Nc3cnn([C@@H]4CCCNC4)c3)ncc2Cl)[C@H]2C=C[C@@H]1C2,1,,,
693,,,,118,,Cn1cc(Nc2ncc(Cl)c(N[C@H]3[C@@H](C(N)=O)[C@@H]4CC[C@H]3O4)n2)cn1,132,,,
6,45,48,5,19,70,NC(=O)[C@@H]1[C@H](Nc2nc(Nc3cnn(CCO)c3)ncc2Cl)[C@H]2C=C[C@@H]1C2,< 1,,,

IC50 [2] [nM],remaining at 0.5 h [3] [%],IC50 [4] [nM],AUC [5] [µM·h],IC50 [6] [nM],solubility at 24 h [7] [µM],SMILES,EC15 [1] [nM],TGI [8],Activity [9],Activity [10]
> 12000,,,,294,,Cn1cc(Nc2nccc(N[C@H]3[C@@H](C(N)=O)[C@@H]4C=C[C@H]3C4)n2)cn1,93,,,
264,,,,43,,Cn1cc(Nc2ncc(C(F)(F)F)c(N[C@H]3[C@@H](C(N)=O)C[C@H]4C[C@@H]3C4(C)C)n2)cn1,39,,,
2,76,55,2,12,68,NC(=O)[C@@H]1[C@H](Nc2nc(Nc3cnn(C4CCNCC4)c3)ncc2Cl)[C@H]2C=C[C@@H]1C2,1,,,
922,,,,145,,COc1cnc(Nc2cnn(C)c2)nc1N[C@H]1[C@@H](C(N)=O)[C@@H]2C=C[C@H]1C2,,,,
329,,,,29,,Cn1cc(Nc2ncc(F)c(N[C@H]3[C@@H](C(N)=O)[C@@H]4C=C[C@H]3C4)n2)cn1,111,,,
1,> 95,> 316,,32,71,NC(=O)[C@@H]1[C@H](Nc2nc(Nc3cnn(CC(=O)O)c3)ncc2Cl)[C@H]2C=C[C@@H]1C2,28,,,
7,< 1,42,,12,4,NC(=O)[C@@H]1[C@H](Nc2nc(Nc3cnn(Cc4ccccc4)c3)ncc2Cl)[C@H]2C=C[C@@H]1C2,< 1,,,
246,,,,32,,Cn1cc(Nc2ncc(Cl)c(N[C@@H]3CCC[C@@H]3C(N)=O)n2)cn1,62,,,
292,,,,51,,Cn1cc(Nc2ncc(C(F)(F)F)c(N[C@H]3[C@@H](C(=O)NC4CC4)[C@@H]4C=C[C@H]3C4)n2)cn1,< 1,,,
68,,> 316,,45,,CNC(=O)[C@@H]1[C@H](Nc2nc(Nc3cnn(C)c3)ncc2C(F)(F)F)[C@H]2C=C[C@@H]1C2,< 1,,,
18,68,167,15,25,68,NC(=O)Cn1cc(Nc2ncc(Cl)c(N[C@H]3[C@@H](C(N)=O)[C@@H]4C=C[C@H]3C4)n2)cn1,19,,,
74,,61,,66,,Cn1cc(Nc2ncc(C(F)(F)F)c(N[C@@H]3[C@H]4CC[C@H](C4)[C@@H]3C(N)=O)n2)cn1,10,,,
169,,,,135,,Cn1cc(Nc2ncc(Cl)c(N[C@@H]3CCCC[C@@H]3C(N)=O)n2)cn1,,,,
50,,> 316,,15,,Cn1cc(Nc2ncc([N+](=O)[O-])c(N[C@H]3[C@@H](C(N)=O)[C@@H]4C=C[C@H]3C4)n2)cn1,51,,,
827,,,,61,,Cn1cc(Nc2ncc(C(F)(F)F)c(N[C@H]3C[C@@H]4CC[C@H]3C4)n2)cn1,> 300,,,
467,,,,252,,Cc1cnc(Nc2cnn(C)c2)nc1N[C@H]1[C@@H](C(N)=O)[C@@H]2C=C[C@H]1C2,11,,,

SMILES,IC50 [2] [nM],remaining at 0.5 h [3] [%],IC50 [4] [nM],AUC [5] [µM·h],IC50 [6] [nM],solubility at 24 h [7] [µM],EC15 [1] [nM],TGI [8],Activity [9],Activity [10]
Cn1cc(Nc2ncc(Cl)c(N[C@H]3[C@@H](C(N)=O)[C@@H]4C=C[C@H]3C4)n2)cn1,14,44,20,11.1,29,78,< 3,Active,Toxic,Toxic
